Source: ChEMBL document CHEMBL1201862, “PubChem BioAssay data set” (2004)
Active and inactive are the calls of the source.

Experiments:
[1] = target: T1, Neuropeptides B/W receptor type 1 (Homo sapiens, UniProt P48145); assay: Fluorescence-based dose response cell-based high throughput screening assay to identify antagonists of the G-protein coupled receptor 7 (GPR7). [Related pubchem assays: 1952 (Screening assay (GPR7 antagonists).), 1880 (Summary AID.)]; type: functional
T1 sequence (P48145 whole entry): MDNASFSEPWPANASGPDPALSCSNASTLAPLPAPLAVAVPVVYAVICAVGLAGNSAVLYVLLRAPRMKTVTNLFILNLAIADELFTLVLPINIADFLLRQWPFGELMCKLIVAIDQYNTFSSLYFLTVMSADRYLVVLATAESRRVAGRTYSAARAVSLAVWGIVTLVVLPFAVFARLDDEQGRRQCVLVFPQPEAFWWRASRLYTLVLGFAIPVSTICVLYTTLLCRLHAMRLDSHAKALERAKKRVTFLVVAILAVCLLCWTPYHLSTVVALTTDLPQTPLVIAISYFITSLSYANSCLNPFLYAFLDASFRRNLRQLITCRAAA

[2] = target: Melanin-concentrating hormone receptor 1 (Homo sapiens, UniProt Q99705); assay: Fluorescence-based counterscreen for antagonists of the G-protein coupled receptor 7 (GPR7): cell-based high throughput dose response assay to identify antagonists of the melanin-concentrating hormone receptor 1 (MCHR1).; type: functional
Sequence of Melanin-concentrating hormone receptor 1 (Q99705 whole entry): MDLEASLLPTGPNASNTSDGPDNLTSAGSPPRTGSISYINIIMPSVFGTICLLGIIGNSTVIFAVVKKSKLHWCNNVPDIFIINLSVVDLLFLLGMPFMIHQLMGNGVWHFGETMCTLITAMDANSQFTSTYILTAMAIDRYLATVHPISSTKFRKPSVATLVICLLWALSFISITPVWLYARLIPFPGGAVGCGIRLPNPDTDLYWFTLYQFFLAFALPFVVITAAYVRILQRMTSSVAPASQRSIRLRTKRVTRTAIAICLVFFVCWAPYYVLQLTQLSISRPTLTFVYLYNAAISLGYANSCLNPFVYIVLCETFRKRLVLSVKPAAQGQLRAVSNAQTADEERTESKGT

[3] = target: Serine/threonine-protein phosphatase PP1-alpha catalytic subunit (Homo sapiens, UniProt P62136); assay: inhibition of protein phosphatase 1 activity – biochemical, fluorescence, dose response (AID 2403);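 further: phosphatase turnover of OMFP into fluorescent 3-O-methylfluorescein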
Sequence of Serine/threonine-protein phosphatase PP1-alpha catalytic subunit (P62136 whole entry): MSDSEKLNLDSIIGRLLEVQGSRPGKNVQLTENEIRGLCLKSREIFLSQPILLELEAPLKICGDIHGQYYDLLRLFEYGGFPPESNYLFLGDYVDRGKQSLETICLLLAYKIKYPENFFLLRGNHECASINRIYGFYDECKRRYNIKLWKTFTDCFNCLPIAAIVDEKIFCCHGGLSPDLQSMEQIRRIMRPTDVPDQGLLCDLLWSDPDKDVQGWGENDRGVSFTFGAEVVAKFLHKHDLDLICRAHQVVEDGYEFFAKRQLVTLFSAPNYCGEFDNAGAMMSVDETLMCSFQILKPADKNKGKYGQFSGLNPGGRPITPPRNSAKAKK

Aminopeptidase N = target: T2, Aminopeptidase N (Plasmodium falciparum FcB1/Columbia, UniProt O96935); assay: malaria alanyl aminopeptidase activity blockers – biochemical, fluorogenic H-Leu-NHMec substrate, 1536-well (AID 1445); set-up: species or system Plasmodium falciparum 3D7, 3D7
T2 sequence (O96935 whole entry): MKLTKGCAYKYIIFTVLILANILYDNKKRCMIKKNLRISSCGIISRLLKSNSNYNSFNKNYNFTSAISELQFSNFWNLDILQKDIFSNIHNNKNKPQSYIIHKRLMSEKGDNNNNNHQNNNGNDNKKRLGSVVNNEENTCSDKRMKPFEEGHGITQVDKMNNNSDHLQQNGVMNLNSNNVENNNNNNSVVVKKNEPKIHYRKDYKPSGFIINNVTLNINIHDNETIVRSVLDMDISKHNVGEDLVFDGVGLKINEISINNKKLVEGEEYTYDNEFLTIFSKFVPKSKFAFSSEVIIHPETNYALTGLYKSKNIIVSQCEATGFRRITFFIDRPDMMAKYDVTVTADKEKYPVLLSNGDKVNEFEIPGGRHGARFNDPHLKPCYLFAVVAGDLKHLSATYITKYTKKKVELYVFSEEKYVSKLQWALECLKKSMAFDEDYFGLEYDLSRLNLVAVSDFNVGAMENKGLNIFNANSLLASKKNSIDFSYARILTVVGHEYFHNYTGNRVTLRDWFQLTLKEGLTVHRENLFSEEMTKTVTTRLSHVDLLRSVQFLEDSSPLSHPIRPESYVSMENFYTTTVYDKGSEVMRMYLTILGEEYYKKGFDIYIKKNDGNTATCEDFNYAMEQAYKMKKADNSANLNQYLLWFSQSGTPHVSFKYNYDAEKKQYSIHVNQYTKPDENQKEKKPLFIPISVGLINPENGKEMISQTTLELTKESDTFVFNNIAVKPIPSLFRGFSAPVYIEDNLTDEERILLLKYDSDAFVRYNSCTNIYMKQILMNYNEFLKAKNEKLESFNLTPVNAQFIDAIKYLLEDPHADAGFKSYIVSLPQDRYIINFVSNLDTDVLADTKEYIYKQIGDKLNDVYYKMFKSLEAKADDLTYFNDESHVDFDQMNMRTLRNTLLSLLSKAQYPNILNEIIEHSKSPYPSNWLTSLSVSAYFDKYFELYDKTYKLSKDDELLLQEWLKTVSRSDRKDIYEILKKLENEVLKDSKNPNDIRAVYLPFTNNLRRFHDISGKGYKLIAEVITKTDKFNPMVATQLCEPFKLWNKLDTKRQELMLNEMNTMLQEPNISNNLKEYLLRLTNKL

[4] = test system: Streptococcus sp. 'group A'; assay: Streptococcus pyogenes SK(-)GAS viability under kanamycin – luminescence, BacTiterGlo, confirmation, counter-screen for streptokinase expression inhibitor project, dose response (AID 1900); type: functional, organism-based
Streptokinase A = target: T3, Streptokinase A (Streptococcus pyogenes serotype M1, UniProt P10520); assay: viability-normalized secreted streptokinase activity reduction – plasminogen activation absorbance, OD405, dose response (AID 1914); type: functional, Streptococcus pyogenes M1 GAS;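 further: secreted streptokinase activity via plasminogen activation per viability signal from cell pellet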
T3 sequence (P10520 whole entry): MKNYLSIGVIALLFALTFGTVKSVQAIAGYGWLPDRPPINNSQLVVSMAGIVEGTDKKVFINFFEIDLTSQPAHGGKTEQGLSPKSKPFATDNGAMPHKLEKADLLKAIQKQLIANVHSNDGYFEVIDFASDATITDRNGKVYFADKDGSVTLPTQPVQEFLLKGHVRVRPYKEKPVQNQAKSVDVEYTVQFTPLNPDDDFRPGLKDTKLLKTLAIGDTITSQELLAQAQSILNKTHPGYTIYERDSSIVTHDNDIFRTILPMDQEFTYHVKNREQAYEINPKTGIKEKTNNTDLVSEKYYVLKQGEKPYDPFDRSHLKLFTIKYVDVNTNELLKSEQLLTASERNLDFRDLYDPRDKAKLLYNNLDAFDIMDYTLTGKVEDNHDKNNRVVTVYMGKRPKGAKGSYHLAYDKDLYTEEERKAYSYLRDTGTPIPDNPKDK

Streptococcus = assay: GAS UMAA2166 growth inhibition – luminescence, BacTiterGlo, counter-screen for streptokinase expression inhibitor project, dose response (AID 1915); type: functional, organism-based;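 further: potency for reduction of bacterial viability or growth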
[5] = target: Induced myeloid leukemia cell differentiation protein Mcl-1 (Homo sapiens, UniProt Q07820); type: functional
Sequence of Induced myeloid leukemia cell differentiation protein Mcl-1 (Q07820 whole entry): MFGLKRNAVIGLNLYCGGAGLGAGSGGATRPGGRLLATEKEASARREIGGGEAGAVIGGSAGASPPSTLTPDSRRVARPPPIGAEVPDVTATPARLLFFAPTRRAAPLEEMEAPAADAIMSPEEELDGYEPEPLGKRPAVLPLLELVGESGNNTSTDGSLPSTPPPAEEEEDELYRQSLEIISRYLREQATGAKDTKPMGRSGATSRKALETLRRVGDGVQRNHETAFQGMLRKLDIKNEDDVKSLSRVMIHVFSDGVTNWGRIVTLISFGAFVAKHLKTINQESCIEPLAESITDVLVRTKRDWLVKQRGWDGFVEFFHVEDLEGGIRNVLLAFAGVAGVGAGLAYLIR

[6] = target: Serine/threonine-protein phosphatase (Homo sapiens, UniProt Q9BPW0); assay: Counterscreen for inhibitors of PP1: fluorescence-based biochemical high throughput dose response assay to identify inhibitors of Protein Phosphatase 5 (PP5). [Related pubchem assays: 2034 (Summary (PP5 inhibitors)), 1987 (PP5 inhibitors in singlate), 2235 (PP1 inhibitors in singlate)]
Sequence of Serine/threonine-protein phosphatase (Q9BPW0 whole entry): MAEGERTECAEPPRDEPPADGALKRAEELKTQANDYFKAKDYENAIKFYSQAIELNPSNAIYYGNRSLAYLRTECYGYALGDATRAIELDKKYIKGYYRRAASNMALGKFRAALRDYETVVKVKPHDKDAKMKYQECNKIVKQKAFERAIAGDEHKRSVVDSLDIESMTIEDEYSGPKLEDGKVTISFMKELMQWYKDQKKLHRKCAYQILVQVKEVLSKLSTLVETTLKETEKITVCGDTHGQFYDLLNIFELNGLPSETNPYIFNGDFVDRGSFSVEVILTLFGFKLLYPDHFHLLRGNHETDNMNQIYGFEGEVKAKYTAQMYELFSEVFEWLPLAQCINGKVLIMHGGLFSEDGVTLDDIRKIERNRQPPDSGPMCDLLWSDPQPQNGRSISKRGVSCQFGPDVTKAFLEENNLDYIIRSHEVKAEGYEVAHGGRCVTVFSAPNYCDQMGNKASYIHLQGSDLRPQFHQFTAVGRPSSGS

[7] = antiviral protection against BTV-induced cell death – arbovirus, BSR cells, confirmation (AID 1250); type: functional;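 further: protection from viral cytopathic effect measured as cell viability by ATP luminescence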
[8] = target: T4, Short transient receptor potential channel 4 (Mus musculus, UniProt Q9QUQ5); assay: block of DAMGO-driven TRPC4 calcium entry – cell-based, HEK293 TRPC4/mu-opioid, Fluo-4 calcium, dose response (AID 434942); type: functional;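 further: potency of inhibitors blocking the TRPC4 calcium response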
T4 sequence (Q9QUQ5 whole entry): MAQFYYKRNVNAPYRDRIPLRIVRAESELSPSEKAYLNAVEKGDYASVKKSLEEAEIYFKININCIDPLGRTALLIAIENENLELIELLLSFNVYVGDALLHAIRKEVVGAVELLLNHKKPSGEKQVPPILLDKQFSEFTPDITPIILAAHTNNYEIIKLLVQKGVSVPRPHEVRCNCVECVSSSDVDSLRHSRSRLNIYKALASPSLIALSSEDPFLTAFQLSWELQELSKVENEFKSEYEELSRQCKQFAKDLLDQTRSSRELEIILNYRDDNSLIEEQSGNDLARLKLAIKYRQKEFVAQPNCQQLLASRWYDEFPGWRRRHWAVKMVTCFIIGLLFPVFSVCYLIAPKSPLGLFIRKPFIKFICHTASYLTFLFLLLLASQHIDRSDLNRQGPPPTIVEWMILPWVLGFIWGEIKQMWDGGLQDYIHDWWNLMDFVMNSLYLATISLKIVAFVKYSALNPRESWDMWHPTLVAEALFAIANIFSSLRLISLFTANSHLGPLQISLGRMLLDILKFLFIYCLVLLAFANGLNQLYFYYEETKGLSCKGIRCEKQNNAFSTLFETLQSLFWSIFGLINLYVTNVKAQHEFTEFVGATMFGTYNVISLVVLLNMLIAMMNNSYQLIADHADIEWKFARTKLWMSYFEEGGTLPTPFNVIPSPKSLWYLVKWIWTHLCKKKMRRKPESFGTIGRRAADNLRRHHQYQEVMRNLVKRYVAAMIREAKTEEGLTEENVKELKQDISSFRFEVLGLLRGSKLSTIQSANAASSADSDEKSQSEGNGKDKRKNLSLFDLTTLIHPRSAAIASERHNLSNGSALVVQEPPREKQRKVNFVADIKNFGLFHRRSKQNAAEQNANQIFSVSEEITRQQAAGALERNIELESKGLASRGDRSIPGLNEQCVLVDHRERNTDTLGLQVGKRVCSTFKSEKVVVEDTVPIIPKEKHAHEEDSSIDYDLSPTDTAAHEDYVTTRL

Leucine aminopeptidase = target: T5, Leucine aminopeptidase (Plasmodium falciparum 3D7, UniProt Q8IL11); assay: P. falciparum M17LAP inhibitors, primary screen, biochemical, fluorogenic H-Leu-NHMec substrate, 1536-well (AID 1619); type: functional
T5 sequence (Q8IL11 whole entry): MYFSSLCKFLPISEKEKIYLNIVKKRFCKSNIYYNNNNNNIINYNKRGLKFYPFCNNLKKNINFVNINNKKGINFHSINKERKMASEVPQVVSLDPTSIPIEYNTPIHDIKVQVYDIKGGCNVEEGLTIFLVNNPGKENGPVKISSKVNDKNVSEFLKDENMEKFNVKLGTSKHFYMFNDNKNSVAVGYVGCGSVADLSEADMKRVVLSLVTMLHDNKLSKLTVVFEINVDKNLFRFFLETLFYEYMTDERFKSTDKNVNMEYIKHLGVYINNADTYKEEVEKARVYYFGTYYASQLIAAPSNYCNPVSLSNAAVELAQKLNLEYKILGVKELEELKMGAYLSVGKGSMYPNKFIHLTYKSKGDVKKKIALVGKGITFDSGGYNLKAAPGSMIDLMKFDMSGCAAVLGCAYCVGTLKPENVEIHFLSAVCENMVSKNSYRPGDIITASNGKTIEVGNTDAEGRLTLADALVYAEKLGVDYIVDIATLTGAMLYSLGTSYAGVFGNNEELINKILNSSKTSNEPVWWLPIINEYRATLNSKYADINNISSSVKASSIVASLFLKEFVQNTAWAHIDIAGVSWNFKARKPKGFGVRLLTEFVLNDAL

Cytochrome P450 2C9 = Cytochrome P450 2C9 (Homo sapiens, UniProt P11712); conditions: Potency
Sequence of Cytochrome P450 2C9 (P11712 whole entry): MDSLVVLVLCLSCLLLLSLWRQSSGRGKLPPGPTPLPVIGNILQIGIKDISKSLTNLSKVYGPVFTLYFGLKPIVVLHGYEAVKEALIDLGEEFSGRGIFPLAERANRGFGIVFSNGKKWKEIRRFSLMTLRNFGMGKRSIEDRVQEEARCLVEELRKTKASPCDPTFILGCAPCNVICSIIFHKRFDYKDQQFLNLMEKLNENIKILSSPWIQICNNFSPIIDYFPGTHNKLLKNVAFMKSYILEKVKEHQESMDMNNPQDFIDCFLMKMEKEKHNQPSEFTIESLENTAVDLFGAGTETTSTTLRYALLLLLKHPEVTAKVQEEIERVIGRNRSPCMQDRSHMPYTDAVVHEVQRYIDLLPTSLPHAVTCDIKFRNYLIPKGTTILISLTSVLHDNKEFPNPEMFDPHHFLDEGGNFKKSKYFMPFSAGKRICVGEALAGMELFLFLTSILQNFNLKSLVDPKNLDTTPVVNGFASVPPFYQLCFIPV

[9] = target: Neuropeptide Y receptor type 2 (Homo sapiens, UniProt P49146); assay: Fluorescence-based cell-based high-throughput dose response assay for agonists of NPY-Y2. [Related pubchem assays: 1703 (Screening assay (CNGC inhibitors).), 1359 (Screening assay (NPY-Y2 potentiators or agonists).), 1304 (Screening assay (NPY-Y1 potentiators or agonists).), 1710 (Screening assay (NPY-Y2 agonists).), 1791 (Summary AID.)]; type: functional
Sequence of Neuropeptide Y receptor type 2 (P49146 whole entry): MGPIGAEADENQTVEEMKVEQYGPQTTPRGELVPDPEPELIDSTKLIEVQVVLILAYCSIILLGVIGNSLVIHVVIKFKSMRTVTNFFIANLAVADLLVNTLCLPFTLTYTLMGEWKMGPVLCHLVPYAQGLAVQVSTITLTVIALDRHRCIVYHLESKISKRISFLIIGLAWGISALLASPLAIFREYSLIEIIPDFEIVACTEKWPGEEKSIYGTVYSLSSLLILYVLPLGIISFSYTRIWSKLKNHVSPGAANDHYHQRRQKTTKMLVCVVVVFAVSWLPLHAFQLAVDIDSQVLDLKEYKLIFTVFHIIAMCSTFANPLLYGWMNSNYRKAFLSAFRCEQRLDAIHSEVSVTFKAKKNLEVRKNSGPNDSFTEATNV

[10] = target: Neuropeptide Y receptor type 1 (Homo sapiens, UniProt P25929); assay: Fluorescence-based counterscreen for agonists of NPY-Y2: cell-based high-throughput dose response assay for agonists of NPY-Y1.; type: functional
Sequence of Neuropeptide Y receptor type 1 (P25929 whole entry): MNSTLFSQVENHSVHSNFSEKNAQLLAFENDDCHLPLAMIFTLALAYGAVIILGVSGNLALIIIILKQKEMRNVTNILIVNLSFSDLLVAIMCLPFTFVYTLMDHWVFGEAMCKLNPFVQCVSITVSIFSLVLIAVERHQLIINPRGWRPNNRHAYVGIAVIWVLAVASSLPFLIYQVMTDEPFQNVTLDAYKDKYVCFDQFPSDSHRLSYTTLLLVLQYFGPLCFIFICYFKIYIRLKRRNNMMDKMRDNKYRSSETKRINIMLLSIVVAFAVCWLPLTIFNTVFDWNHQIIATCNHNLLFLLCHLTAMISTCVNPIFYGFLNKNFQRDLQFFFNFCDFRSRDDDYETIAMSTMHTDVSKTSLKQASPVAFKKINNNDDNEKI

HEK293 = assay: Fluorescence-based counterscreen for potentiators or agonists of NPY-Y2: cell-based high-throughput dose response assay to identify inhibitors of cyclic nucleotide gated ion channel (CNGC) activity. In this assay, the parental HEK293 cell line transfected with a cyclic-nucleotide gated ion channel (CNGC)-based cAMP sensor is used to measure inhibition of isoproterenol-induced CNGC activity by test compound.; type: functional; conditions: Homo sapiens;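 further: stimulus is 1 µM isoproterenol at EC100 plus PDE inhibitor Ro 20-1724 at 25 µM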
Bcl-2-like protein 10 = target: T6, Bcl-2-like protein 10 (Homo sapiens, UniProt Q9HD36); assay: Concentration-response of Bcl-B inhibitors by biochemical FP with TR3 (AID 1243); type: functional
T6 sequence (Q9HD36 whole entry): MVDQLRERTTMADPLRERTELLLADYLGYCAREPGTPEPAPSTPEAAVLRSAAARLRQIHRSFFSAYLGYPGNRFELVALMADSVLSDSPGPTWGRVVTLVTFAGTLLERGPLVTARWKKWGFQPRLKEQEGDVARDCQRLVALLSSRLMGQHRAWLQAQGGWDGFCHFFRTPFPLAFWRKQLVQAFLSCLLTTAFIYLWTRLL

CCCCNc1nc2ccccc2n1CC(=O)Nc1c(C)cccc1CC
IC50 [1]: > 43.8 µM (not active)
IC50 [2]: 31.7 µM (not active)

CCOC(=O)c1sc2nc3c(SCC(=O)O)cc(C(=O)c4cc(F)ccc4O)cn3c(=O)c2c1C
IC50 [3]: 5.11 µM (active)
IC50 (Aminopeptidase N): 21.9 µM (active)
EC50 [4]: 1.86 µM (active)
EC50 (Streptokinase A): 15.4 µM (active)
EC50 (Streptococcus): 141 µM (active)
IC50 [5]: 2.63 µM (active)
IC50 [6]: > 67 µM (not active)

Cc1ccc(-c2csc(NC(=O)C3CC=CCC3C(=O)O)c2C(=O)OC(C)C)cc1 (configuration not stated)
IC50 [7]: 39.4 µM (active)
EC50 [8]: 5.96 µM (active)
IC50 (Leucine aminopeptidase): 9.13 µM (active)

Cc1ccccc1OC1C=CC(C#Cc2ccc(Br)cc2)OC1CO (configuration not stated)
AC50 (Cytochrome P450 2C9): 3.98 µM (inconclusive)

Fc1ccc2c(c1)/C(=N/Nc1ccccn1)CCS2
EC50 [9]: 11.3 µM (not active)
EC50 [10]: 12.4 µM (not active)
EC50 (HEK293): 7.7 µM (active)

CN1CCN(CN2C(=O)/C(=N\NC(=O)CSc3nc4ccccc4s3)c3ccccc32)CC1
EC50 (Bcl-2-like protein 10): 12.9 µM (active)
